Assay results as given in PubChem BioAssay (NCI).
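Tested at 5 concentrations; 48 h exposure; 96-well plates; endpoints linearly interpolated, else capped at highest concentration. At the GI50, growth is halved. At the TGI there is no net growth.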

Tests used:
Experiment in all cases: NCI tumour cell line growth inhibition, 48 h
[1] = test system: SN12C renal
[2] = test system: A498 renal
[3] = test system: TK-10 renal
[4] = test system: CCRF-CEM leukemia
[5] = test system: PC-3 prostate
[6] = test system: COLO 205 colon
[7] = test system: OVCAR-5 ovarian
[8] = test system: MDA-MB-435
[9] = test system: HCT-116 colon
[10] = test system: SF-295 CNS

Row | SMILES | GI50 [1] [µM] | TGI [1] [µM] | GI50 [2] [µM] | TGI [2] [µM] | GI50 [3] [µM] | TGI [3] [µM] | GI50 [4] [µM] | TGI [4] [µM] | GI50 [5] [µM] | TGI [5] [µM] | GI50 [6] [µM] | TGI [6] [µM] | GI50 [7] [µM] | TGI [7] [µM] | GI50 [8] [µM] | TGI [8] [µM] | GI50 [9] [µM] | TGI [9] [µM] | GI50 [10] [µM] | TGI [10] [µM]
1 | COc1ccc2nccc(/C=C/c3ccnc4ccc(OC)cc34)c2c1 | > 100 | > 100 | > 36.9 | > 83.9 | > 45.2 | > 63.4 | > 38.9 | > 53.3 | > 47.5 | > 79.9 | > 100 | > 100 | > 82.2 | > 100 | > 79.5 | > 100 | 38.7 | > 100 | > 64.6 | > 100
2 | O=C(Nc1cccc(-n2cc(-c3ccncc3)c(-c3ccc(O)c(Cl)c3)n2)c1)c1ccc(Cl)c(Cl)c1 | 23.1 | > 100 | 1.94 | 89.9 | 43.2 | > 100 | 4.08 | > 100 | 5.16 | > 100 | 62.2 | > 100 | 39.5 | > 100 | 6.06 | 46.2 | 5.95 | > 100 | 5.94 | 86.5
3 | FC(F)(F)c1[nH]ncc1-c1nc2ccc3[nH]ncc3c2c2c1CCCC2 | 1.53 | 5.6 | 1.17 | 2.6 | 1.24 | 8.27 | 2.15 | 10.7 | 2.08 | 8.73 | 1.54 | 4.08 | 2.51 | 13.1 | 1.78 | 9.55 | 0.523 | 10.6 | 1.69 | 8.52
4 | CC(OC(=O)N(N(CCCl)S(C)(=O)=O)S(C)(=O)=O)c1ccc([N+](=O)[O-])cc1 (stereo not given) | 34.9 | > 100 | 1.7 | 43.3 | > 66.2 | > 100 | 0.179 | 15.9 | > 66.7 | > 100 | 77.6 | > 100 | > 100 | > 100 | 99.4 | > 100 | > 66 | > 100 | 34.5 | > 100
5 | Cc1ccc(C(=O)N=Nc2c(O)[nH]c3ccc(Cl)cc23)cc1 | 8.7 | 17.8 | 35.3 | > 50 | 43.2 | > 50 | 0.322 | > 50 | 25.9 | > 50 | 19 | > 50 | 44.6 | > 50 | 13 | 40.6 | 10.4 | > 50 | 44.5 | > 50
6 | COc1ccc(-c2nnc(Nc3nc(O)c(C4=c5cc(F)ccc5=NC4=O)s3)o2)cc1 | 47 | > 100 | 41.7 | > 100 | 56.3 | > 100 | 28.8 | > 100 | 32.4 | > 100 | 68.2 | > 100 | > 100 | > 100 | 36.2 | > 100 | 20 | 42.7 | 29.5 | > 100
7 | CCN1C(=O)N(CC)C2C1NN=c1s/c(=C\c3cccc([N+](=O)[O-])c3)c(=O)n12 (stereo not given) | 0.149 | > 100 | 0.0254 | 0.0916 | > 100 | > 100 | 0.116 | > 100 | 0.0853 | > 100 | 0.0663 | 0.538 | 0.324 | > 100 | 0.0214 | 0.0504 | 0.0422 | > 100 | 0.0423 | > 100
8 | Oc1ccccc1C=Nc1ccccc1N=Cc1ccccc1O.[Cu+2] | 4.84 | 18.7 | 7.66 | 20.8 | 10.5 | 23.8 | 4.16 | > 100 | 3.49 | 16.2 | 3.45 | 14.5 | 14.8 | 36 | 4.38 | 17 | 4.45 | 16.9 | 5.91 | 19.9
9 | NC(CO)C(=O)NCC(=O)O (stereo not given) |  | > 100 |  | > 100 |  | > 100 |  | > 100 |  | > 100 |  | > 100 |  | > 100 |  | > 100 |  | > 100 |  | > 100
10 | Oc1c2c(c(O)c3ccccc13)C1(N=N2)c2ccccc2Oc2ccccc21 |  | 27 |  | 35.7 |  | 23 |  | 29.9 |  | 28.5 |  | 28 |  | 26.5 |  | 17.9 |  | 17.7 |  | 33.3
11 | CC(=O)/C(=C\c1c(-c2ccccc2)[nH]c2ccccc12)S(=O)(=O)c1ccccc1 | 1.82 | 9.59 | 5.44 | 15.9 | 3.44 | > 41.1 | 1.4 | 4.78 | 2.44 | 15 | 1.54 | 5.62 | 2.01 | 5.46 | 0.295 | 4.14 | 0.727 | 2 | 2.33 | 10.2
12 | COc1cc(NC(C)CCCN)c2ncccc2c1Sc1ccc(Cl)cc1 (stereo not given) | 1.62 | 3.06 | 3.65 | 16.2 | 2.01 | 3.5 | 1.77 | 4.96 | 1.65 | 3.09 | 1.67 | 3.03 | 1.73 | 3.28 | 1.86 | 3.57 | 1.7 | 3.27 | 2.01 | 4.06
13 | CN(C)c1ccc(C(=C2C=CC(=[N+](C)C)C=C2)c2ccccc2Cl)cc1 | 0.239 | 1.67 | 0.289 | 1.04 | 0.345 | 1.41 | 0.402 | 5.06 | 0.242 | 0.995 | 0.17 | 0.312 | 0.408 | 1.48 | 0.309 | 1.11 | 0.155 | 0.605 | 0.0894 | 0.401
